Test results: US9028845B2, “Chimeric immunomodulatory compounds and methods of using the same-IV” (Dynavax Technologies Corporation, priority 2001, dated 2015)

Key:
human PBMCs = experiment: Human PBMC cytokine response assay (IFN-γ and IFN-α in cell-free medium by ELISA), with or without cPLGA; format: cell-based;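 as to IFN-α (pg/ml) mean: 20 µg/mL compound for 24 hours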;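 as to IFN-γ (pg/ml) mean: 20 µg/mL compound for 24 hours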
PBMCs = experiment: Human PBMC proliferation assay (3H-thymidine incorporation); format: cell-based; settings: Experiment A; for mean cpm: 2 μg/ml
CD19+ B cells = experiment: Human B cell proliferation assay (3H-thymidine incorporation)
Procedure: Purified human B cells from 2 donors were stimulated with 5 μg/ml P-6 or CIC for 96 h. Proliferation was assessed by ^3H-thymidine incorporation.
A CIC is considered to induce “little” human B cell proliferation if B cell proliferation in the presence of the CIC is between greater than 15 to about 30% of P-6.
Human PBMCs were isolated from heparanized blood from two normal subjects. Some PBMCs were held in reserve while the remainder was incubated with CD19+ MACS beads (Miltenyi Biotec). These cells were then passed through a magnet, separating the CD19+ B cells through positive selection. […] B cells were then cultured at 1×10^5/200 μl/well in 96-well round-bottomed plates. In some cases, PBMCs were also cultured, but at 2×10^5/200 μl/well. Cells were stimulated in triplicate with 2 μg/ml polynucleotide or CIC. The culture period was 48 hours at 37° C. At the end of the culture period, the plates were pulsed with ^3H-thymidine, 1 μCi/well, and incubated for an additional 8 hours. Then the plates were harvested using standard liquid scintillation techniques and data was collected in counts per minutes (cpm).

[1] = Table 24, mean of donors 28234-28237
[2] = Table 25, mean of donors 28250-28253
[3] = donor 28066, 20 ug/ml, 24 h, + PLGA = premixed with 100 μg/ml cPLGA
[4] = donor 28067, 20 ug/ml, 24 h, + PLGA = premixed with 100 μg/ml cPLGA
[5] = donor 28068, 20 ug/ml, 24 h, + PLGA = premixed with 100 μg/ml cPLGA
[6] = mean of donors 28065-28068, 20 ug/ml, 24 h, + PLGA = premixed with 100 μg/ml cPLGA
[7] = mean of donors 28185-28188, Table 15
[8] = B cells, Donor 146, 2 μg/ml, Experiment A
[9] = B cells, Donor 147, 2 μg/ml, Experiment A

## 5′-TCGTCGA-3′-HEG-5′-TCGTCGA-3′-HEG-5′-TCGTCGA-3′ [Compound C-21]
Human PBMCs; Table 9, donor 28089
  IFN-α: 56 pg/mL
  IFN-γ: 61 pg/mL
Human PBMCs; Table 9, donor 28090
  IFN-α: 157 pg/mL
  IFN-γ: 68 pg/mL
Human PBMCs; Table 9, donor 28098
  IFN-α: 286 pg/mL
  IFN-γ: 218 pg/mL
Human PBMCs; Table 9, donor 28099
  IFN-α: 466 pg/mL
  IFN-γ: 124 pg/mL
Human PBMCs; Table 9, mean of donors
  IFN-α mean: 241 pg/mL
  IFN-γ mean: 118 pg/mL
Human PBMCs; Table 10, donor 28042
  IFN-α: 57 pg/mL
  IFN-γ: 790 pg/mL
Human PBMCs; Table 10, donor 28043
  IFN-α: 72 pg/mL
  IFN-γ: 1519 pg/mL
Human PBMCs; Table 10, donor 28044
  IFN-α: 79 pg/mL
  IFN-γ: 1198 pg/mL
Human PBMCs; Table 10, donor 28045
  IFN-α: 15 pg/mL
  IFN-γ: 177 pg/mL
Human PBMCs; Table 10, mean of donors
  IFN-α mean: 56 pg/mL
  IFN-γ mean: 921 pg/mL
Human PBMCs; Table 11, donor 28042
  IFN-α: 146 pg/mL
  IFN-γ: 572 pg/mL
Human PBMCs; Table 11, donor 28043
  IFN-α: 94 pg/mL
  IFN-γ: 460 pg/mL
Human PBMCs; Table 11, donor 28044
  IFN-α: 191 pg/mL
  IFN-γ: 4000 pg/mL
Human PBMCs; Table 11, donor 28045
  IFN-α: 349 pg/mL
  IFN-γ: 1644 pg/mL
Human PBMCs; Table 11, mean of donors
  IFN-α mean: 195 pg/mL
  IFN-γ mean: 1669 pg/mL
Human PBMCs; Table 24, donor 28234
  IFN-α: 16 pg/mL
  IFN-γ: 4 pg/mL
Human PBMCs; Table 24, donor 28235
  IFN-α: 16 pg/mL
  IFN-γ: 107 pg/mL
Human PBMCs; Table 24, donor 28236
  IFN-α: 73 pg/mL
  IFN-γ: 308 pg/mL
Human PBMCs; Table 24, donor 28237
  IFN-α: 678 pg/mL
  IFN-γ: 1645 pg/mL
Human PBMCs; [1]
  IFN-α mean: 196 pg/mL
  IFN-γ mean: 516 pg/mL
Human PBMCs; Table 25, donor 28250
  IFN-a: 31 pg/mL
Human PBMCs; Table 25, donor 28250, polynucleotides/spacers at amounts equivalent to the CIC, spacers alone 9 uM
  IFN-g: 122 pg/mL
Human PBMCs; Table 25, donor 28251
  IFN-a: 69 pg/mL
  IFN-g: 51 pg/mL
Human PBMCs; Table 25, donor 28252
  IFN-a: 41 pg/mL
  IFN-g: 155 pg/mL
Human PBMCs; Table 25, donor 28253
  IFN-a: 264 pg/mL
  IFN-g: 203 pg/mL
Human PBMCs; [2]
  IFN-a mean: 101 pg/mL
  IFN-g mean: 133 pg/mL
Human PBMCs; donor 28065 (high background), 20 ug/ml, 24 h, + PLGA = premixed with 100 μg/ml cPLGA, 1000 = outside assay limits
  IFN-γ (pg/ml) 28065: 653 pg/mL
Human PBMCs; donor 28065, 20 ug/ml, 24 h, + PLGA = premixed with 100 μg/ml cPLGA
  IFN-α (pg/ml) 28065: 227 pg/mL
Human PBMCs; [3]
  IFN-α (pg/ml) 28066: 24 pg/mL
  IFN-γ (pg/ml) 28066: 16 pg/mL
Human PBMCs; [4]
  IFN-α (pg/ml) 28067: 183 pg/mL
  IFN-γ (pg/ml) 28067: 24 pg/mL
Human PBMCs; [5]
  IFN-α (pg/ml) 28068: 769 pg/mL
  IFN-γ (pg/ml) 28068: 960 pg/mL
Human PBMCs; donor 28185, Table 15
  IFN-a: 443 pg/mL
  IFN-g: 244 pg/mL
Human PBMCs; donor 28186, Table 15
  IFN-a: 64 pg/mL
  IFN-g: 37 pg/mL
Human PBMCs; donor 28187, Table 15
  IFN-a: 1 pg/mL
  IFN-g: 125 pg/mL
Human PBMCs; donor 28188, Table 15
  IFN-a: 4 pg/mL
  IFN-g: 7 pg/mL
Human PBMCs; [6]
  IFN-α (pg/ml) mean: 300 pg/mL
  IFN-γ (pg/ml) mean: 413 pg/mL
Human PBMCs; [7]
  IFN-a (pg/ml) mean: 128 pg/mL
  IFN-g (pg/ml) mean: 103 pg/mL
Human PBMCs; mean ×2, Table 15
  IFN-a (pg/ml) ×2: 256 pg/mL
Human PBMCs; mean ×4, Table 15
  IFN-g (pg/ml) ×4: 413 pg/mL
Human PBMCs; used alone (no cPLGA)
  immunomodulatory activity (IFN-γ / IFN-α secretion), in words: more active than other CG-containing CICs
PBMCs; Donor 146, 2 μg/ml
  cpm1: 30338 cpm
  cpm2: 22685 cpm
  cpm3: 22383 cpm
PBMCs; Donor 146 mean
  mean cpm: 25135 cpm
PBMCs; Donor 147, 2 μg/ml
  cpm1: 28819 cpm
  cpm2: 530 cpm
  cpm3: 37088 cpm
PBMCs; Donor 147 mean
  mean cpm: 22146 cpm
PBMCs; mean of Donors 146 and 147, 2 μg/ml
  mean of both: 23641 cpm
CD19+ B cells; 2 μg/ml, 48 h plus 8 h 3H-thymidine pulse
  B cell proliferation, in words: cause B cells to proliferate
CD19+ B cells; [8]
  cpm1: 28467 cpm
  cpm2: 16074 cpm
  cpm3: 19258 cpm
CD19+ B cells; B cells, Donor 146 mean, 2 μg/ml, Experiment A
  mean cpm: 21266 cpm
CD19+ B cells; [9]
  cpm1: 17604 cpm
  cpm2: 18851 cpm
  cpm3: 19887 cpm
CD19+ B cells; B cells, Donor 147 mean, 2 μg/ml, Experiment A
  mean cpm: 18781 cpm
CD19+ B cells; B cells, mean of Donors 146 and 147, 2 μg/ml, Experiment A
  mean of both: 20024 cpm

## (5′-TCGATCG-3′-HEG)2-glycerol-HEG-5′-TCGATCG-3′ [Compound C-145]
Human PBMCs; PBMCs from 8 donors, 20 μg/ml, 24 h
  IFN-α induction (FIG. 10), in words: induce high levels of IFN-α
CD19+ B cells; purified human B cells, 5 μg/ml, 96 h
  B cell proliferation (FIG. 11), in words: induce very little B cell proliferation
